Molecular target: T1, MAP3K11 (MLK3) (Homo sapiens, UniProt Q16584)
T1 construct: purchased Thermo Fisher Scientific (Life Technologies) SelectScreen
Experiment: SelectScreen LanthaScreen
Assay type: binding
Settings: 1 µM
How it was run: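 NU5455 was profiled across the SelectScreen Broad panel of kinase activity and binding assays. Z'LYTE reactions such as CSF1R ran at apparent Km ATP, while the Adapta CAMK1 assay used ATP listed as 10. Values are given as percent.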

T1 sequence (Q16584 whole entry): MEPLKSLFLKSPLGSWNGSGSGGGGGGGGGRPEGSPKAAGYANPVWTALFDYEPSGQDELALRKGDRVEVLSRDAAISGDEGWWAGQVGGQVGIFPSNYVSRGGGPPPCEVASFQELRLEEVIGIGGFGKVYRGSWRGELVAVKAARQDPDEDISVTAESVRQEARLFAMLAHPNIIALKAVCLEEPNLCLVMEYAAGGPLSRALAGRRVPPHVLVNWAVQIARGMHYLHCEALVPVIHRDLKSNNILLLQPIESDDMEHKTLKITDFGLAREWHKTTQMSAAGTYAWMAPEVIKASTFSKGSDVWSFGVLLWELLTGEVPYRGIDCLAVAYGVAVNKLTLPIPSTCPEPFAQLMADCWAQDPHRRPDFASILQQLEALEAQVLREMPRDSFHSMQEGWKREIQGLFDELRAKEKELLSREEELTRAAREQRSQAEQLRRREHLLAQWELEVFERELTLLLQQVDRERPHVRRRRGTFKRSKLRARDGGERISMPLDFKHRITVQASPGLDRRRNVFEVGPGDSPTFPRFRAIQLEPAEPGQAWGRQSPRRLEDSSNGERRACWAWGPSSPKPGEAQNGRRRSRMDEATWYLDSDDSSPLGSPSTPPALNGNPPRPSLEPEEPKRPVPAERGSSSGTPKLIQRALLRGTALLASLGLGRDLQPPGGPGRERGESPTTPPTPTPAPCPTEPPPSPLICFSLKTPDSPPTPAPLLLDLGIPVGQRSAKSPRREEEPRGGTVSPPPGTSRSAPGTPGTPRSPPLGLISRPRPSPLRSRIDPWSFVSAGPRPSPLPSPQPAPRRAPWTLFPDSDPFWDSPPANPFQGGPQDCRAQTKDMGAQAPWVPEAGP

CN(C(=O)CN1CCOCC1)c1ccc2sc3c(-c4cccc5c(=O)cc(N6CC7CCC(C6)O7)oc45)cccc3c2c1 [NU5455]
% displacement: 4.0%
